Experiment: xn = mol fraction of the nth substance listed
Details: 101 kPa, Liquid; for viscosity: Falling or rolling sphere viscometry; for mass density: Vibrating tube method

CC[N+](CC)=C(N(C)C)N(C)C.O=S(=O)([N-]S(=O)(=O)C(F)(F)F)C(F)(F)F + CCO
Details	mass density [kg/m3]	viscosity [mPa·s]
293.15 K, x1 = 0.0995	1018.97	2.764
293.15 K, x1 = 0.1987	1136.2	5.261
293.15 K, x1 = 0.299	1207.9	9.359
293.15 K, x1 = 0.3991	1256.11	13.81
293.15 K, x1 = 0.5075	1293.66	20.03
293.15 K, x1 = 0.5956	1316.86	26.34
293.15 K, x1 = 0.7065	1339.41	36.42
293.15 K, x1 = 0.7983	1353.71	47.01
293.15 K, x1 = 0.9106	1367.67	62.04
293.15 K, x1 = 0.951	1372.2	70.47
293.15 K, x1 = 1	1377.86	81.02
298.15 K, x1 = 0.0995	1014.27	2.453
298.15 K, x1 = 0.1987	1131.43	4.596
298.15 K, x1 = 0.299	1203.13	8.052
298.15 K, x1 = 0.3991	1251.35	11.82
298.15 K, x1 = 0.5075	1288.9	16.96
298.15 K, x1 = 0.5956	1312.11	22.12
298.15 K, x1 = 0.7065	1334.68	30.22
298.15 K, x1 = 0.7983	1348.98	38.69
298.15 K, x1 = 0.9106	1362.96	50.44
298.15 K, x1 = 0.951	1367.5	56.94
298.15 K, x1 = 1	1373.16	65.01
303.15 K, x1 = 0.0995	1009.56	2.19
303.15 K, x1 = 0.1987	1126.67	4.044
303.15 K, x1 = 0.299	1198.38	6.99
303.15 K, x1 = 0.3991	1246.63	10.23
303.15 K, x1 = 0.5075	1284.19	14.53
303.15 K, x1 = 0.5956	1307.39	18.83
303.15 K, x1 = 0.7065	1329.99	25.47
303.15 K, x1 = 0.7983	1344.3	32.25
303.15 K, x1 = 0.9106	1358.3	41.52
303.15 K, x1 = 0.951	1362.85	46.62
303.15 K, x1 = 1	1368.51	52.96
308.15 K, x1 = 0.0995	1004.84	1.964
308.15 K, x1 = 0.1987	1121.91	3.583
308.15 K, x1 = 0.299	1193.62	6.102
308.15 K, x1 = 0.3991	1241.9	8.914
308.15 K, x1 = 0.5075	1279.48	12.57
308.15 K, x1 = 0.5956	1302.7	16.19
308.15 K, x1 = 0.7065	1325.33	21.69
308.15 K, x1 = 0.7983	1339.66	27.29
308.15 K, x1 = 0.9106	1353.68	34.83
308.15 K, x1 = 0.951	1358.24	38.87
308.15 K, x1 = 1	1363.9	43.84
313.15 K, x1 = 0.0995	1000.1	1.773
313.15 K, x1 = 0.1987	1117.13	3.195
313.15 K, x1 = 0.299	1188.87	5.364
313.15 K, x1 = 0.3991	1237.18	7.841
313.15 K, x1 = 0.5075	1274.79	10.98
313.15 K, x1 = 0.5956	1298.03	14.08
313.15 K, x1 = 0.7065	1320.7	18.73
313.15 K, x1 = 0.7983	1335.04	23.34
313.15 K, x1 = 0.9106	1349.09	29.46
313.15 K, x1 = 0.951	1353.66	32.73
313.15 K, x1 = 1	1359.32	36.79
318.15 K, x1 = 0.0995	995.32	1.606
318.15 K, x1 = 0.1987	1112.33	2.864
318.15 K, x1 = 0.299	1184.11	4.758
318.15 K, x1 = 0.3991	1232.46	6.927
318.15 K, x1 = 0.5075	1270.1	9.662
318.15 K, x1 = 0.5956	1293.36	12.36
318.15 K, x1 = 0.7065	1316.07	16.3
318.15 K, x1 = 0.7983	1330.44	20.16
318.15 K, x1 = 0.9106	1344.52	25.22
318.15 K, x1 = 0.951	1349.1	27.9
318.15 K, x1 = 1	1354.76	31.25
323.15 K, x1 = 0.0995	990.51	1.463
323.15 K, x1 = 0.1987	1107.51	2.585
323.15 K, x1 = 0.299	1179.33	4.253
323.15 K, x1 = 0.3991	1227.73	6.158
323.15 K, x1 = 0.5075	1265.41	8.555
323.15 K, x1 = 0.5956	1288.7	10.91
323.15 K, x1 = 0.7065	1311.45	14.31
323.15 K, x1 = 0.7983	1325.84	17.59
323.15 K, x1 = 0.9106	1339.96	21.82
323.15 K, x1 = 0.951	1344.55	24.03
323.15 K, x1 = 1	1350.21	26.79

CC[N+](CC)=C(N(C)C)N(C)C.O=S(=O)([N-]S(=O)(=O)C(F)(F)F)C(F)(F)F + CO
Details	mass density [kg/m3]	viscosity [mPa·s]
293.15 K, x1 = 0.0999	1073.55	1.848
293.15 K, x1 = 0.1984	1186.61	4.046
293.15 K, x1 = 0.3011	1249.9	7.913
293.15 K, x1 = 0.4008	1288.15	13.15
293.15 K, x1 = 0.5055	1315.68	19.75
293.15 K, x1 = 0.5916	1332.42	26.14
293.15 K, x1 = 0.712	1350.19	37.44
293.15 K, x1 = 0.7994	1360.11	46.94
293.15 K, x1 = 0.8995	1369.61	61.78
293.15 K, x1 = 1	1377.86	81.02
298.15 K, x1 = 0.0999	1068.63	1.685
298.15 K, x1 = 0.1984	1181.69	3.569
298.15 K, x1 = 0.3011	1245.05	6.875
298.15 K, x1 = 0.4008	1283.31	11.36
298.15 K, x1 = 0.5055	1310.86	16.81
298.15 K, x1 = 0.5916	1327.63	22.03
298.15 K, x1 = 0.712	1345.44	30.94
298.15 K, x1 = 0.7994	1355.37	38.51
298.15 K, x1 = 0.8995	1364.9	49.75
298.15 K, x1 = 1	1373.16	65.01
303.15 K, x1 = 0.0999	1063.71	1.538
303.15 K, x1 = 0.1984	1176.79	3.198
303.15 K, x1 = 0.3011	1240.23	6.03
303.15 K, x1 = 0.4008	1278.51	9.842
303.15 K, x1 = 0.5055	1306.08	14.47
303.15 K, x1 = 0.5916	1322.88	18.78
303.15 K, x1 = 0.712	1340.73	26.03
303.15 K, x1 = 0.7994	1350.68	32.26
303.15 K, x1 = 0.8995	1360.23	41.13
303.15 K, x1 = 1	1368.51	52.96
308.15 K, x1 = 0.0999	1058.79	1.413
308.15 K, x1 = 0.1984	1171.9	2.949
308.15 K, x1 = 0.3011	1235.43	5.332
308.15 K, x1 = 0.4008	1273.73	8.651
308.15 K, x1 = 0.5055	1301.33	12.59
308.15 K, x1 = 0.5916	1318.16	16.22
308.15 K, x1 = 0.712	1336.05	22.2
308.15 K, x1 = 0.7994	1346.03	27.19
308.15 K, x1 = 0.8995	1355.6	34.31
308.15 K, x1 = 1	1363.9	43.84
313.15 K, x1 = 0.0999	1053.86	1.296
313.15 K, x1 = 0.1984	1167.01	2.613
313.15 K, x1 = 0.3011	1230.63	4.749
313.15 K, x1 = 0.4008	1268.96	7.645
313.15 K, x1 = 0.5055	1296.6	11.05
313.15 K, x1 = 0.5916	1313.46	14.12
313.15 K, x1 = 0.712	1331.4	19.15
313.15 K, x1 = 0.7994	1341.4	23.25
313.15 K, x1 = 0.8995	1351	29.05
313.15 K, x1 = 1	1359.32	36.79
318.15 K, x1 = 0.0999	1048.89	1.2
318.15 K, x1 = 0.1984	1162.1	2.362
318.15 K, x1 = 0.3011	1225.81	4.261
318.15 K, x1 = 0.4008	1264.19	6.815
318.15 K, x1 = 0.5055	1291.87	9.775
318.15 K, x1 = 0.5916	1308.77	12.43
318.15 K, x1 = 0.712	1326.77	16.69
318.15 K, x1 = 0.7994	1336.79	20.12
318.15 K, x1 = 0.8995	1346.42	24.89
318.15 K, x1 = 1	1354.76	31.25
323.15 K, x1 = 0.0999	1043.89	1.114
323.15 K, x1 = 0.1984	1157.19	2.157
323.15 K, x1 = 0.3011	1221	3.854
323.15 K, x1 = 0.4008	1259.42	6.126
323.15 K, x1 = 0.5055	1287.15	8.704
323.15 K, x1 = 0.5916	1304.09	10.98
323.15 K, x1 = 0.712	1322.14	14.66
323.15 K, x1 = 0.7994	1332.18	17.56
323.15 K, x1 = 0.8995	1341.85	21.56
323.15 K, x1 = 1	1350.21	26.79

— the NIST ThermoML archive (doi:10.1016/j.jct.2019.04.023)
